Experiments:
[1] = in vivo; cited from earlier work
acetylcholoinesterase = acetylcholoinesterase (Homo sapiens, UniProt P22303); settings: in humans, recent study; cited from earlier work
Aedes aegypti [2] = settings: 25 μmol/cm^2, Katritzky data; cited from earlier work
Aedes aegypti [3] = test: protection time assay for mosquito repellency; type: in vivo; settings: standardized to 25 μmol/cm^2; assigned, not measured
Experimental: In two recent studies, 34 N-acylpiperdine and 38 carboxamide mosquito repellent candidates were synthesized and compared for their effectiveness. […] The mode of repellency for all of these compounds is unknown. As the N-acylpiperdines and some of the carboxamides are larger and likely have a lower vapor pressure than DEET, it is possible that the increased protection times of these compounds is due to a slower evaporation rate.
As these odors were tested using different approaches, a single unit of measure was needed to standardize them for training. Since the largest proportion of odors was measured in protection time, all odors were converted into this single standard of protection time in days to match with the Katritzky data at a concentration of 25 μmol/cm^2. Picaridin, which is believed to have a similar protection to DEET, was given the same protection time as DEET (17.5 days). […] While this is a very rough approximation, it is sufficiently accurate for training.

[4] = tested on: trichoid sensillum housed odor receptor, which is also activated by DEET; settings: compared with DEET; cited from earlier work
insects = settings: in vivo; cited from earlier work

Chain of acetylcholoinesterase (P22303 32-614): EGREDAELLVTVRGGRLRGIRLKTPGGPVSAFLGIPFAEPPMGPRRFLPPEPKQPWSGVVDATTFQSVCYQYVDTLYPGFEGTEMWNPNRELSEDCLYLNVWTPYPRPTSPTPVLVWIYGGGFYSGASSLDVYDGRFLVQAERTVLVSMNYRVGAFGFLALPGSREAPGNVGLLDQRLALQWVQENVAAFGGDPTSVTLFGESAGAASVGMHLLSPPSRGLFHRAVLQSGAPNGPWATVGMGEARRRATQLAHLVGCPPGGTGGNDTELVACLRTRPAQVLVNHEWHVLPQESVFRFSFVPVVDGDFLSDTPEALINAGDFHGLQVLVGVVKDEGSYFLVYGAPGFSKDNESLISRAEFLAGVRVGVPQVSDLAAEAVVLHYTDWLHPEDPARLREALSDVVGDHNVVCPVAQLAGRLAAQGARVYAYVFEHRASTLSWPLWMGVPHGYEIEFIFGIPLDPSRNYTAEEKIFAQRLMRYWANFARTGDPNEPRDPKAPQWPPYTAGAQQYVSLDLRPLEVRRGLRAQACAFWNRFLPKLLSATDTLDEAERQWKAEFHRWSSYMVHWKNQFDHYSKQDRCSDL

Row | SMILES | protection time given for training (same as DEET, very rough approximation) (Aedes aegypti [3]) | activation of DEET-activated odor receptor / DEET receptive neuron [4] | also measured
1 | CCN(CC)C(=O)c1cccc(C)c1 [DEET, N,N-diethyl-3-methylbenzamide] |  |  | irritation [1]: act as an irritant; inhibition of acetylcholinesterase (acetylcholoinesterase): inhibit; protection time (Aedes aegypti [2]): 17.5 days
2 | CC12CCC(CC1)C(C)(C)O2 [Eucalyptol] | 17.5 days | more strongly than DEET | 
3 | CCC(C)OC(=O)N1CCCCC1CCO (stereo not shown) [Icaridin] | 17.5 days |  | irritation [1]: less irritating than DEET; effectiveness at repelling insects compared with DEET (insects): as effective as DEET
4 | CC(C)[C@]12CC(=O)[C@H](C)[C@H]1C2 [alpha-thujone] | 17.5 days |  | 
5 | CC1C(=O)CC2(C(C)C)CC12 (stereo not drawn) [beta-thujone] | 17.5 days |  | 
6 | C=CC(C)(O)CCC=C(C)C (stereo not shown) [linalool] | 17.5 days | more strongly than DEET | 
7 | CC(C)[C@]12CC(=O)[C@H](C)[C@H]1C2 [thujone] |  | more strongly than DEET | 
